Assay [1] deals with T1, human TLR7 (Homo sapiens, UniProt Q9NYK1).
T1 construct: host or cells: HEK293 (HEK-Blue hTLR7)
T1 sequence (Q9NYK1 27-1049): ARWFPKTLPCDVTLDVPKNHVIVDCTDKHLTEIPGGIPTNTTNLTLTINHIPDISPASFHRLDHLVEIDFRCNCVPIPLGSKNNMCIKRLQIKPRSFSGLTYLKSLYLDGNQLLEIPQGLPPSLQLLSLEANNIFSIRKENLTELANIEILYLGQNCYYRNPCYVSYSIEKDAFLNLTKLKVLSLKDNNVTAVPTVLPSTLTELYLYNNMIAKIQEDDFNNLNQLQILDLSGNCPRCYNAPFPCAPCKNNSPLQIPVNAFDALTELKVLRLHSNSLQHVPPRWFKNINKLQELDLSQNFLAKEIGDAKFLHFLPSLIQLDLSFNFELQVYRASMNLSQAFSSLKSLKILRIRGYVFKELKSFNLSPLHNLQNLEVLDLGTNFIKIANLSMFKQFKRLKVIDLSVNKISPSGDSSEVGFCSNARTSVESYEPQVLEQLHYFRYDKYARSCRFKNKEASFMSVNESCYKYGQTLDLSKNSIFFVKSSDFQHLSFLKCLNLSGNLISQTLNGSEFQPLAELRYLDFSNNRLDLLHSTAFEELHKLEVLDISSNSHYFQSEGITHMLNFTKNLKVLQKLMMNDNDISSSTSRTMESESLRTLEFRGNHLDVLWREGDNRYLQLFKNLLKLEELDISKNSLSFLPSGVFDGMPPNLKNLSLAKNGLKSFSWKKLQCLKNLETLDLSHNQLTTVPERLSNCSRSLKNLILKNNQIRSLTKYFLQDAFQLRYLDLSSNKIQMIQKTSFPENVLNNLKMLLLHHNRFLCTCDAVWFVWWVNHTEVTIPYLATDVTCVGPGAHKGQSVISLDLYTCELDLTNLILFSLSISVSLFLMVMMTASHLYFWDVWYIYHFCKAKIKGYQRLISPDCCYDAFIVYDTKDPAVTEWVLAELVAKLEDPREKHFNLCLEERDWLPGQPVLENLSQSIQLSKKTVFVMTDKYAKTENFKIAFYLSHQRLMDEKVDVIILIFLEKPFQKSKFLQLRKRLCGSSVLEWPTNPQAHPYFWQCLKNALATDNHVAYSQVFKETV
In words: HEK-Blue hTLR7 reporter cell assay (SEAP, NF-kB/AP-1) for stimulation of human TLR7. The note with it: HEK-Blue hTLR7 cells, 24 h incubation, SEAP readout; read-out: TLR7_EC50. The format is cell-based. The method, boiled down:
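Activity expressed as EC50 for half-maximal SEAP induction. Compounds, serially diluted 3-fold from 20 to 0.01 μM, were incubated 24 h at 37 °C, 5% CO2 with HEK-Blue hTLR7 reporter cells (3.10E4/well, plated 18–24 h earlier); supernatant developed with QUANTI-Blue.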

Assay [2] addresses T2, human TLR8 (Homo sapiens, UniProt Q9NR97).
T2 construct: host or cells: HEK293 (HEK-Blue hTLR8)
T2 sequence (Q9NR97 27-1041): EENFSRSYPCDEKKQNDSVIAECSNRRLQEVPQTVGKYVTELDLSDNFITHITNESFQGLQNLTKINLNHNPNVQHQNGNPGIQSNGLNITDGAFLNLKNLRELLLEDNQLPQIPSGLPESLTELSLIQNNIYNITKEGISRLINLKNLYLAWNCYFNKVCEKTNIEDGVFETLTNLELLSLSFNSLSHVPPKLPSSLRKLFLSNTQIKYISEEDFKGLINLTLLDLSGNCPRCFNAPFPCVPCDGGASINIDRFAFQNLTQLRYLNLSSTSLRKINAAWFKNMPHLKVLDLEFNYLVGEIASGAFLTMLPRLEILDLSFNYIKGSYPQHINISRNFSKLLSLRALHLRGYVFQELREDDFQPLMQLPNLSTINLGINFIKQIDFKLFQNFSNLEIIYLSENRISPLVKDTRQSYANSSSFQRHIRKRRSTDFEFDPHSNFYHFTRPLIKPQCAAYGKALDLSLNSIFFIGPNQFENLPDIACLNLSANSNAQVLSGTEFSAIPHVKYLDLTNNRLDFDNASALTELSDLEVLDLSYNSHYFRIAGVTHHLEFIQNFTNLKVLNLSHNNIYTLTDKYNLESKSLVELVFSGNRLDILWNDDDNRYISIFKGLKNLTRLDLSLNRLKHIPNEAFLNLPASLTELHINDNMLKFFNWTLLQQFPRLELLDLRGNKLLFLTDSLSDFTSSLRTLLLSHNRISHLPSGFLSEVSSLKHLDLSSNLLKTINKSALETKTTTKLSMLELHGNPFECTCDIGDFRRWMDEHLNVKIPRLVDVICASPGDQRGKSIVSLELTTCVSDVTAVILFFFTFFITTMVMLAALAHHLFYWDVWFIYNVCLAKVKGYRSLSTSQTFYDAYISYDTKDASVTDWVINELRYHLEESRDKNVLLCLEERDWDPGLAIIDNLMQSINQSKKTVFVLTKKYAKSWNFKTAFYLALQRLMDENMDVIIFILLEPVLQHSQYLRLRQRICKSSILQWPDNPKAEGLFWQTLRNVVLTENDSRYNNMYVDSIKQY
In words: HEK-Blue hTLR8 reporter cell assay (SEAP, NF-kB/AP-1) for stimulation of human TLR8. The format is cell-based. Particulars: HEK-Blue hTLR8 cells; for EC50: 24 h incubation, SEAP readout, read-out: TLR8_EC50. The method, boiled down: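 Stimulation is quantified as secreted alkaline phosphatase in supernatant using QUANTI-Blue™ substrate. Reporter HEK293 line co-transfected with hTLR8 and SEAP under an IFN-β minimal promoter with five NF-κB/AP-1 sites; 3.10E4 cells/well, 18 to 24 h pre-culture at 37° C. before compounds.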

Counter-ions that a name gives are not always drawn. Bounds are passed on as bounds.

As for `CCCCOc1nnc(N)c2nc(CCCC)n(Cc3ccc(OC)cc3)c12` [Compound 8, 7-butoxy-2-butyl-1-(4-methoxybenzyl)-1H-imidazo[4,5-d]pyridazin-4-amine], the EC50 in assay [1] was 168 nM; in assay [2], above 20000 nM.
The matching figures for `CCCCc1nc2c(N)nnc(OC(C)C)c2n1CC(C)(C)O` [Compound 24, 1-(4-amino-2-butyl-7-isopropoxy-1H-imidazo[4,5-d]pyridazin-1-yl)-2-methylpropan-2-ol]: 234 nM and 2640 nM.
The matching figures for `CCCCc1nc2c(N)nnc(OC(C)C)c2n1Cc1ccc(CNC2CCOCC2)cc1` [Compound 82, 2-butyl-7-isopropoxy-1-(4-(((tetrahydro-2H-pyran-4-yl)amino)methyl)benzyl)-1H-imidazo[4,5-d]pyridazin-4-amine hydrochloride]: 13 nM and 303 nM.
Taken in the same sequence, the figures for `CCCCc1nc2c(N)nnc(N(C)Cc3ccc(CN(C)CCOC)cc3)c2n1C` [Compound 47, 2-butyl-N7-(4-(((2-methoxyethyl)(methyl)amino)methyl)benzyl)-N7,1-dimethyl-1H-imidazo[4,5-d]pyridazine-4,7-diamine] were 421 nM and 223 nM.
`CCCCc1nc2c(N)nnc(OC(C)C)c2n1Cc1ccc(CNCCOCCOC)cc1` [Compound 108, 2-butyl-7-isopropoxy-1-(4-(((2-(2-methoxyethoxy)ethyl)amino)methyl)benzyl)-1H-imidazo[4,5-d]pyridazin-4-amine]: the EC50 was 29 nM in assay [1] and 1400 nM in assay [2].
The matching figures for `CCCCc1nc2c(N)nnc(N3CCCC3)c2n1Cc1ccc(CN)cc1` [Compound 134, 1-(4-(aminomethyl)benzyl)-2-butyl-7-(pyrrolidin-1-yl)-1H-imidazo[4,5-d]pyridazin-4-amine]: 274 nM and above 20000 nM.
In the case of `CCCCc1nc2c(N)nnc(O)c2n1Cc1ccc(OC)cc1` [Compound 93, 4-amino-2-butyl-1-(4-methoxybenzyl)-1H-imidazo[4,5-d]pyridazin-7-ol], the EC50 in assay [1] was above 20000 nM. Further, the activation at 20 µM in assay [2] (24 h, at 20000 nM) was found to be 17%.
Regarding `CCCCc1nc2c(N)nnc(OC(C)C)c2n1CC1CCNCC1` [Compound 165, 2-butyl-7-isopropoxy-1-(piperidin-4-ylmethyl)-1H-imidazo[4,5-d]pyridazin-4-amine], the EC50 is 1570 nM in assay [1] and above 20000 nM in assay [2].
The matching figures for `CCCCc1nc2c(N)nnc(OC(C)C)c2n1Cc1ccc(CNCC(=O)OC(C)(C)C)cc1` [Compound 117, tert-butyl (4-((4-amino-2-butyl-7-isopropoxy-1H-imidazo[4,5-d]pyridazin-1-yl)methyl)benzyl)glycinate]: 190 nM and 8880 nM.
Taken in the same sequence, the figures for `CCCCc1nc2c(N)nnc(-c3ccco3)c2n1Cc1ccc(OC)cc1` [Compound 55, 2-butyl-7-(furan-2-yl)-1-(4-methoxybenzyl)-1H-imidazo[4,5-d]pyridazine-4-amine] were 1570 nM and above 20000 nM.
Taken in the same sequence, the figures for `CCCCc1nc2c(N)nnc(OC(C)C)c2n1CCCCCCN(C(C)=O)C1CCOCC1` [Compound 148, N-[6-(7-amino-2-butyl-4-isopropoxy-imidazo[4,5-d]pyridazin-3-yl)hexyl]-N-tetrahydropyran-4-yl-acetamide] were 34.6 nM and above 20000 nM.
`CCCCc1nc2c(N)nnc(CCC(C)C)c2n1Cc1ccc(CN)cc1` [Compound 133, 1-(4-(aminomethyl)benzyl)-2-butyl-7-isopentyl-1H-imidazo[4,5-d]pyridazin-4-amine]: the EC50 in assay [1] is 146 nM; in assay [2] it was above 19000 nM.
The matching figures for `CCCCc1nc2c(N)nnc(-c3ccoc3)c2n1Cc1ccc(OC)cc1` [Compound 67, 2-butyl-7-(furan-3-yl)-1-(4-methoxybenzyl)-1H-imidazo[4,5-d]pyridazin-4-amine]: 2060 nM and above 20000 nM.
The matching figures for `CCCCc1nc2c(N)nnc(C3CCCC3)c2n1Cc1ccc(OC)cc1` [Compound 16, 2-butyl-7-cyclopentyl-1-(4-methoxybenzyl)-1H-imidazo[4,5-d]pyridazin-4-amine]: 323 nM and above 20000 nM.
The matching figures for `CCCCc1nc2c(N)nnc(N(C)Cc3ccc(C#N)cc3)c2n1C` [Compound 45, 4-(((4-amino-2-butyl-1-methyl-1H-imidazo[4,5-d]pyridazin-7-yl)(methyl)amino)methyl)benzonitrile]: above 20000 nM and 9420 nM.
For `CCCCc1nc2c(N)nnc(-c3cccn3C)c2n1Cc1ccc(OC)cc1` [Compound 70, 2-butyl-1-(4-methoxybenzyl)-7-(1-methyl-1H-pyrrol-2-yl)-1H-imidazo[4,5-d]pyridazin-4-amine hydrochloride], the EC50 is 4000 nM in assay [1] and above 20000 nM in assay [2].
The matching figures for `CCCCc1nc2c(N)nnc(/C=C/C(C)C)c2n1Cc1ccc(CN)cc1` [Compound 132, (E)-1-(4-(aminomethyl)benzyl)-2-butyl-7-(3-methylbut-1-en-1-yl)-1H-imidazo[4,5-d]pyridazin-4-amine]: 296 nM and above 18500 nM.
The matching figures for `CCCCc1nc2c(N)nnc(OC(C)C)c2n1CCCCCCN(C(C)=O)C1CS(=O)(=O)C1` [Compound 155, N-[6-(7-amino-2-butyl-4-isopropoxy-imidazo[4,5-d]pyridazin-3-yl)hexyl]-N-(1,1-dioxothietan-3-yl)acetamide hydrochloride salt]: 596 nM and above 20000 nM.
In the case of `CCCCc1nc2c(N)nnc(NCc3ccc(CN)cc3)c2n1C` [Compound 87, N7-(4-(aminomethyl)benzyl)-2-butyl-1-methyl-1H-imidazo[4,5-d]pyridazine-4,7-diamine], the EC50 in assay [1] is 8520 nM; in assay [2] it was above 20000 nM.
Taken in the same sequence, the figures for `CCCCc1nc2c(N)nnc(-c3ccn(C)c3)c2n1Cc1ccc(OC)cc1` [Compound 11, 2-butyl-1-(4-methoxybenzyl)-7-(1-methyl-1H-pyrrol-3-yl)-1H-imidazo[4,5d]pyridazin-4-amine] were 192 nM and above 20000 nM.

The record behind these values is patent US12583861B2, “Derivatives of imidazo[4,5-d]pyridazine, their preparation and their therapeutic application” (SANOFI, priority 2021, dated 2026).
